The text below walks through data of ChEMBL document CHEMBL1137443, “Preparation of 4-aryl-2-trifluoromethylbenzonitrile derivatives as androgen receptor antagonists for topical suppression of sebum production” (Bioorg Med Chem Lett, 2007).

One assay deals with T1, Progesterone receptor (Homo sapiens, UniProt P06401).
T1 sequence (P06401 whole entry): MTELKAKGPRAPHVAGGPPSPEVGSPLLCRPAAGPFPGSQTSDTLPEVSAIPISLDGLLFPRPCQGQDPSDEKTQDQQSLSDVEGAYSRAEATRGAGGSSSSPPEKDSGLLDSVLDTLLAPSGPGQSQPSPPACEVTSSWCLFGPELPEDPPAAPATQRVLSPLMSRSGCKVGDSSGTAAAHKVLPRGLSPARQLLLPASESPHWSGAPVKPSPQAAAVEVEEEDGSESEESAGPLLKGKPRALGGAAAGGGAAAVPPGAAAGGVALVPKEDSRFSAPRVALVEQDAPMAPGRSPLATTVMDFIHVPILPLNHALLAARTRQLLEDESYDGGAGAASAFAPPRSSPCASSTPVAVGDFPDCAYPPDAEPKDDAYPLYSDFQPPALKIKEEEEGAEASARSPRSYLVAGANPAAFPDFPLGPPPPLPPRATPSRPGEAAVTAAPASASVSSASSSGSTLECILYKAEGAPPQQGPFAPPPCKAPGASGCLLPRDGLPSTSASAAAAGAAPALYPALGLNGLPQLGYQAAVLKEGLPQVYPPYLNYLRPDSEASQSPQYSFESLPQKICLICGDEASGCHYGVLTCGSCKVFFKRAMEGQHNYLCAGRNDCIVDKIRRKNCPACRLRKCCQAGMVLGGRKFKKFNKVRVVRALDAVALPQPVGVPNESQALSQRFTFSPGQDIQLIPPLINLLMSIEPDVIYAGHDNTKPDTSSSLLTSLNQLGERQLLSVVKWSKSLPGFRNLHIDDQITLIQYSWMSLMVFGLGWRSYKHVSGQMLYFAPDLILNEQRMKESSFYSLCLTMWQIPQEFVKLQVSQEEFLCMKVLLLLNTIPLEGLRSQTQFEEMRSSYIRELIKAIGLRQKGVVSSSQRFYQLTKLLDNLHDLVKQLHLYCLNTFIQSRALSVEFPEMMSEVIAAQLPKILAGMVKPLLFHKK
The assay can be described thus: Binding affinity at human PR.

Assay [1] deals with T2, Androgen receptor (Homo sapiens, UniProt P10275).
T2 sequence (P10275 whole entry): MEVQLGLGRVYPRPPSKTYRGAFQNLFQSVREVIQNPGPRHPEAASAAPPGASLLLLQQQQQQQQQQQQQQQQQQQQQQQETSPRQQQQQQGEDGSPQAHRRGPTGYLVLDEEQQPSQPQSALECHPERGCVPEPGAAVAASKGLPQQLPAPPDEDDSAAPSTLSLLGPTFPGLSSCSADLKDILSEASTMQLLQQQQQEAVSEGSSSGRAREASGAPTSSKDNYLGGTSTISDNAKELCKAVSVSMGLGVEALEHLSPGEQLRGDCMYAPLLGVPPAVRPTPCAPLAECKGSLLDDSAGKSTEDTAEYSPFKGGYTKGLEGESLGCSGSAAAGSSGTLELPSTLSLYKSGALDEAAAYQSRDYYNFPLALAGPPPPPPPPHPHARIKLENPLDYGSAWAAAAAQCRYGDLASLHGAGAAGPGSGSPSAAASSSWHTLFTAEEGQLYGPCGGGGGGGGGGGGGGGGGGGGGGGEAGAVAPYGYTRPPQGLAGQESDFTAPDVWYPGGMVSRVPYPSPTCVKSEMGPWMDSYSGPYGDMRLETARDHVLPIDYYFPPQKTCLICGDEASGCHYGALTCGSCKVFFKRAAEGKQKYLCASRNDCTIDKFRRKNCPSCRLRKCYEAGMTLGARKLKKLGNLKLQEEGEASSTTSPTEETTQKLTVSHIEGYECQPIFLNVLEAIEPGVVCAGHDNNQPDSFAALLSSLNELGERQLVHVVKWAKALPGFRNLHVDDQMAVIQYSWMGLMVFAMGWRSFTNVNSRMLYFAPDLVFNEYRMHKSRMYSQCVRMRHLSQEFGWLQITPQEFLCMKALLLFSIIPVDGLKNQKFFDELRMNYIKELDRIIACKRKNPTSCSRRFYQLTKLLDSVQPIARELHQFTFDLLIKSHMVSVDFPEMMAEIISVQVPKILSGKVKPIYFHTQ
The assay can be described thus: Displacement of [3H]DHT from human recombinant AR expressed in Sf9 cells. In general terms: Loss of bound radioactivity is the signal in a displacement assay; it reports binding, not function.

For assay [2], the target named is T2, Androgen receptor. The assay can be described thus: Antagonist activity at human AR in MDA-MB453-MMTV-luci cells by functional assay. The assay is classed as cell-based.
A further assay deals with Syrian golden hamster. The assay can be described thus: Reduction of wax ester in Golden Syrian hamster ear model relative to control. Set-up: scale not given: the % may be the effect or the level left. The assay is classed as functional, Mesocricetus auratus.

Usually IC50 stands for the concentration that inhibits the measured activity by half. On to `COc1ccc(-c2ccc(C#N)c(C(F)(F)F)c2)cc1`, for which the results for the concentration for half-maximal inhibition (IC50) at Progesterone receptor, at Androgen receptor [1] and against Androgen receptor [2] were 5520 nM, 56.7 nM and 0.8 nM, respectively. The like results for `N#Cc1ccc(-c2ccc(O)cc2)cc1C(F)(F)F` were, in that order, more than 10000 nM, 61.2 nM and 11.9 nM. Regarding `Cc1ccccc1-c1ccc(C#N)c(C(F)(F)F)c1`, the IC50 was 146 nM on Androgen receptor [1] and more than 1000 nM against Androgen receptor [2]. `Cc1cccc(-c2ccc(C#N)c(C(F)(F)F)c2)c1`: on Androgen receptor [1], the IC50 is 1900 nM.

Regarding `COC(=O)COc1ccccc1-c1ccc(C#N)c(C(F)(F)F)c1`, the half-maximal inhibitory concentration (IC50) on Androgen receptor [1] amounted to 1310 nM. On the same count and under the same terms, the result for `N#Cc1ccc(-c2ccccc2OCCO)cc1C(F)(F)F` reads 1540 nM. The same measure, in the same setting: as for `COCCOCCOc1ccccc1-c1ccc(C#N)c(C(F)(F)F)c1`, the figure is 8140 nM; as for `N#Cc1ccc(-c2ccccc2Cl)cc1C(F)(F)F`, 9.8 nM. `COc1ccccc1-c1ccc(C#N)c(C(F)(F)F)c1`: the results for the IC50 on Progesterone receptor, on Androgen receptor [1] and against Androgen receptor [2] were 3250 nM, 37 nM and 20.1 nM, respectively. `COCCOc1ccccc1-c1ccc(C#N)c(C(F)(F)F)c1`: the IC50 on Androgen receptor [1] stood at 2230 nM. For `N#Cc1ccc(-c2ccccc2O)cc1C(F)(F)F`, the figures for the IC50 on Progesterone receptor, at Androgen receptor [1] and on Androgen receptor [2] were 4450 nM, 39.9 nM and 0.02 nM, respectively. The Activity in the assay on Syrian golden hamster came out at 86%.

For the compound `N#Cc1ccc(-c2cccc(O)c2)cc1C(F)(F)F`, at Androgen receptor [1], the IC50 stood at 229 nM.

In the case of `Cc1ccc(-c2ccc(C#N)c(C(F)(F)F)c2)cc1`, the IC50 on Androgen receptor [1] came to 200 nM; at Androgen receptor [2], 843 nM.

Turning to `N#Cc1ccc(-c2c(O)cccc2O)cc1C(F)(F)F`, the IC50 at Androgen receptor [1] amounted to 989 nM. Take `N#Cc1ccc(-c2ccccc2C(F)(F)F)cc1C(F)(F)F`: the IC50 on Androgen receptor [1] is 10.9 nM; at Androgen receptor [2], more than 1 nM.

For the compound `COc1cccc(OC)c1-c1ccc(C#N)c(C(F)(F)F)c1`, the figures for the IC50 on Androgen receptor [1] and against Androgen receptor [2] were 14.7 nM and 399 nM, respectively.

As for `COc1cccc(-c2ccc(C#N)c(C(F)(F)F)c2)c1`, the concentration for half-maximal inhibition (IC50) on Progesterone receptor was found to be 9460 nM; on Androgen receptor [1], 955 nM; on Androgen receptor [2], 140 nM. Turning to `N#Cc1ccc(-c2ccccc2OCC(=O)O)cc1C(F)(F)F`, the IC50 on Androgen receptor [1] was more than 10000 nM. Consider `CC1(C)C(=O)N(c2ccc(C#N)c(C(F)(F)F)c2)C(=O)N1CCCCO` [RU-58841], for which, in the assay with Syrian golden hamster, the Activity worked out at 95%.
